Values quoted from earlier work, collected in patent publication US20230038462A1, “TRANSDERMAL PENETRANT FORMULATIONS CONTAINING CANNABIDIOL” (DYVE BIOSCIENCES, INC., priority 2019, published 2023).

C=C(C)[C@@H]1CCC(C)=C[C@H]1c1c(O)cc(CCCCC)cc1O [Cannabidiol]
side effects of long-term use: somnolence, decreased appetite, diarrhea, fatigue, malaise, weakness, and sleeping problems
